Test results as given in the NIST ThermoML archive (doi:10.1021/je700021f).

Legend:
[1] = xn = mol fraction of the nth substance listed; settings: 101 kPa, Liquid, Pulse-echo method, x1 = 1
[2] = 101 kPa, Liquid, Pulse-echo method

CCCCCCCCC [nonane] + CCCCCCCCCCl
[1]
Settings | speed of sound [m/s]
293.15 K | 1227.3
298.15 K | 1207.2
303.15 K | 1187.2
308.15 K | 1167.3
313.15 K | 1147.5
318.15 K | 1127.8
323.15 K | 1108.2
328.15 K | 1088.7
333.15 K | 1069.3
338.15 K | 1050
343.15 K | 1030.8
348.15 K | 1011.8
353.15 K | 992.8
358.15 K | 973.9
363.15 K | 955.2
368.15 K | 936.5
373.15 K | 917.9
378.15 K | 899.5
383.15 K | 881.1
388.15 K | 862.9
393.15 K | 844.7
398.15 K | 826.7
403.15 K | 808.8
408.15 K | 790.9
413.15 K | 773.2
418.15 K | 755.6
423.15 K | 738

CCCCCCCCCCl [1-chlorononane]
[2]
Settings | speed of sound [m/s]
293.15 K | 1297.2
298.15 K | 1278.2
303.15 K | 1259.5
308.15 K | 1240.9
313.15 K | 1222.5
318.15 K | 1204.3
323.15 K | 1186.3
328.15 K | 1168.4
333.15 K | 1150.7
338.15 K | 1133.2
343.15 K | 1115.9
348.15 K | 1098.8
353.15 K | 1081.9
358.15 K | 1065.1
363.15 K | 1048.5
368.15 K | 1032.2
373.15 K | 1015.9
378.15 K | 999.1
383.15 K | 982.7
388.15 K | 966.4
393.15 K | 950.3
398.15 K | 934.3
403.15 K | 918.4
408.15 K | 902.6
413.15 K | 887
418.15 K | 871.4
423.15 K | 856

CCCCCCCCC [nonane]
[2]
Settings | speed of sound [m/s]
293.15 K | 1227.3
298.15 K | 1207.2
303.15 K | 1187.2
308.15 K | 1167.3
313.15 K | 1147.5
318.15 K | 1127.8
323.15 K | 1108.2
328.15 K | 1088.7
333.15 K | 1069.3
338.15 K | 1050
343.15 K | 1030.8
348.15 K | 1011.8
353.15 K | 992.8
358.15 K | 973.9
363.15 K | 955.2
368.15 K | 936.5
373.15 K | 917.9
378.15 K | 899.5
383.15 K | 881.1
388.15 K | 862.9
393.15 K | 844.7
398.15 K | 826.7
403.15 K | 808.8
408.15 K | 790.9
413.15 K | 773.2
418.15 K | 755.6
423.15 K | 738
